Among the data in patent publication US7781436B2 (Hoffmann-La Roche Inc., priority 2005, dated 2010) are Ki values, retold here.

Where a name gives a salt, the structure may show the parent alone. Read-outs that look alike come from different tables or passages of the source.

The assay deals with T1, human V1a receptor (Homo sapiens, UniProt P37288).
T1 construct: expressed in transfected cells; host or cells: HEK293 cells, transiently transfected; membranes prepared
Description: human V1a receptor binding (3H-Vasopressin SPA, membranes of transfected HEK293 cells). How it is done: The human V1a receptor was cloned by RT-PCR from total human liver RNA. The coding sequence was subcloned in an expression vector after sequencing to confirm the identity of the amplified sequence. […] Cell membranes were prepared from HEK293 cells transiently transfected with the expression vector and grown in 20 liter fermenters with the following protocol.
50 g of cells are resuspended in 30 ml freshly prepared ice cold Lysis buffer (50 mM HEPES, 1 mM EDTA, 10 mM MgCl2 adjusted to pH=7.4+ complete cocktail of protease inhibitor (Roche Diagnostics)). Homogenized with Polytron for 1 min and sonicated on ice for 2×2 minutes at 80% intensity (Vibracell sonicator). The preparation is centrifuged 20 min at 500 g at 4° C., the pellet is discarded and the supernatant centrifuged 1 hour at 43,000 g at 4° C. (19'000 rpm). The pellet is resuspended in 12.5 ml Lysis buffer+12.5 ml Sucrose 20% and homogenized using a Polytron for 1-2 min. The protein concentration is determined by the Bradford method, and aliquots are stored at −80° C. until use. For binding studies 60 mg Yttrium silicate SPA beads (Amersham) are mixed with an aliquot of membrane in binding buffer (50 mM Tris, 120 mM NaCl, 5 mM KCl, 2 mM CaCl2, 10 mM MgCl2) for 15 minutes with mixing. 50 ul of bead/membrane mixture is then added to each well of a 96 well plate, followed by 50 ul of 4 nM 3H-Vasopressin (American Radiolabeled Chemicals). For total binding measurement 100 ul of binding buffer are added to the respective wells, for non-specific binding 100 ul of […] cold vasopressin and for compound testing 100 ul of a serial dilution of each compound in 2% DMSO. The plate is incubated 1 h at room temperature, centrifuged 1 min at 1000 g and counted on a Packard Top-Count. Non-specific binding counts are subtracted from each well, and data is normalized to the maximum specific binding set at 100%. To calculate an IC 50 the curve is fitted using a non-linear regression model (XLfit) and the Ki is calculated using the Cheng-Prussoff equation.

[1] abbreviates: displacement of 4 nM 3H-Vasopressin, HEK293 cell membranes, Ki by Cheng-Prussoff from IC50, read-out: Ki.

T1 sequence (P37288 whole entry): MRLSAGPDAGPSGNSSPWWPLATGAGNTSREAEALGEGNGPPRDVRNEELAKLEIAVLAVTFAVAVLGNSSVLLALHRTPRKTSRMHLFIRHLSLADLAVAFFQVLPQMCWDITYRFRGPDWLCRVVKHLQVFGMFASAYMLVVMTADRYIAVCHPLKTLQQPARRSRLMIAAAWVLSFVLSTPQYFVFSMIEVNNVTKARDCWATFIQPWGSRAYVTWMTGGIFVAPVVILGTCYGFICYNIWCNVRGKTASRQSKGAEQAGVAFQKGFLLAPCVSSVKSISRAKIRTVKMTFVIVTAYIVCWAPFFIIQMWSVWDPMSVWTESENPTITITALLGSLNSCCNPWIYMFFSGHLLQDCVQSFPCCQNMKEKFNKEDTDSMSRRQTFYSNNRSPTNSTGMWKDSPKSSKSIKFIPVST

The term Ki denotes a measure of affinity in units of concentration, obtained from inhibition or displacement. As to `CN1CCN(C(=O)Cn2cc(C(=O)N3CCC(c4ccccc4OC(F)(F)F)CC3)c3ccc(Cl)cc32)CC1` [Example 88, 2-{6-Chloro-3-[4-(2-trifluoromethoxy-phenyl)-piperidine-1-carbonyl]-indol-1-yl}-1-(4-methyl-piperazin-1-yl)-ethanone], the inhibition constant Ki under setting [1] was determined as 7 nM.

With `CNC(=O)Cn1cc(C(=O)N2CCC(c3ccccc3OC(F)(F)F)CC2)c2ccc(Cl)cc21` [Example 90, 2-{6-Chloro-3-[4-(2-trifluoromethoxy-phenyl)-piperidine-1-carbonyl]-indol-1-yl}-N-methyl-acetamide], the Ki under setting [1] stood at 8 nM.

`CN(C)C(=O)Cn1cc(C(=O)N2CCC(c3ccccc3OC(F)(F)F)CC2)c2ccc(Cl)cc21` [Example 95, 2-{6-Chloro-3-[4-(2-trifluoromethoxy-phenyl)-piperidine-1-carbonyl]-indol-1-yl}-N,N-dimethyl-acetamide]: the inhibition constant Ki turned out to be 13 nM.

In the case of `CNC(=O)Cn1cc(C(=O)N2CCC(c3ccccc3C(F)(F)F)CC2)c2ccc(Cl)cc21` [Example 96, 2-{6-Chloro-3-[4-(2-trifluoromethyl-phenyl)-piperidine-1-carbonyl]-indol-1-yl}-N-methyl-acetamide], the Ki under setting [1] was determined as 11 nM.

`CN1CCN(C(=O)Cn2cc(C(=O)N3CCC(c4ccccc4C(F)(F)F)CC3)c3ccc(Cl)cc32)CC1` [Example 97, 2-{6-Chloro-3-[4-(2-trifluoromethyl-phenyl)-piperidine-1-carbonyl]-indol-1-yl}-1-(4-methyl-piperazin-1-yl)-ethanone]: the inhibition constant (Ki) under setting [1] turned out to be 6 nM.

As to `CN(C)C(=O)Cn1cc(C(=O)N2CCC(c3ccccc3C(F)(F)F)CC2)c2ccc(Cl)cc21` [Example 102, 2-{6-Chloro-3-[4-(2-trifluoromethyl-phenyl)-piperidine-1-carbonyl]-indol-1-yl}-N,N-dimethyl-acetamide], under setting [1], the inhibitory constant (Ki) amounted to 7 nM.

As for `CNC(=O)Cn1cc(C(=O)N2CCC(c3ccccc3OC)CC2)c2ccc(Cl)cc21` [Example 106, 2-{6-Chloro-3-[4-(2-methoxy-phenyl)-piperidine-1-carbonyl]-indol-1-yl}-N-methyl-acetamide], under setting [1], the inhibition constant (Ki) was 5 nM.

As for `CNCCn1cc(C(=O)N2CCC(c3cccc4c3OCC4)CC2)c2ccc(Cl)cc21` [Example 107, [6-Chloro-1-(2-methylamino-ethyl)-1H-indol-3-yl]-[4-(2,3-dihydro-benzofuran-7-yl)-piperidin-1-yl]-methanone], under setting [1], the inhibitory constant (Ki) was found to be 12 nM.

Take `COc1ccccc1C1CCN(C(=O)c2cn(CCN(C)C)c3cc(Cl)ccc23)CC1` [Example 108, [6-Chloro-1-(2-dimethylamino-ethyl)-1H-indol-3-yl]-[4-(2-methoxy-phenyl)-piperidin-1-yl]-methanone]: the inhibition constant (Ki) under setting [1] was found to be 8 nM.

As for `CNC(=O)Cn1cc(C(=O)N2CCC(c3ccccc3F)CC2)c2ccc(Cl)cc21` [Example 111, 2-{6-Chloro-3-[4-(2-fluoro-phenyl)-piperidine-1-carbonyl]-indol-1-yl}-N-methyl-acetamide], under setting [1], the Ki was found to be 7 nM.

Regarding `CN(C)C(=O)Cn1cc(C(=O)N2CCC(c3ccccc3F)CC2)c2ccc(Cl)cc21` [Example 114, 2-{6-Chloro-3-[4-(2-fluoro-phenyl)-piperidine-1-carbonyl]-indol-1-yl}-N,N-dimethyl-acetamide], the inhibition constant (Ki) under setting [1] came out at 3 nM.

`CN(C)CCn1cc(C(=O)N2CCC(c3ccccc3F)CC2)c2ccc(Cl)cc21` [Example 115, [6-Chloro-1-(2-dimethylamino-ethyl)-1H-indol-3-yl]-[4-(2-fluoro-phenyl)-piperidin-1-yl]-methanone]: under setting [1], the Ki was 11 nM.

As for `CN1CCN(C(=O)Cn2cc(C(=O)N3CCC(c4ccccc4F)CC3)c3ccc(Cl)cc32)CC1` [Example 117, 2-{6-Chloro-3-[4-(2-fluoro-phenyl)-piperidine-1-carbonyl]-indol-1-yl}-1-(4-methyl-piperazin-1-yl)-ethanone], the inhibition constant (Ki) under setting [1] turned out to be 6 nM.

For `O=C(Cn1cc(C(=O)N2CCC(c3ccccc3F)CC2)c2ccc(Cl)cc21)N1CCNCC1` [Example 118, 2-{6-Chloro-3-[4-(2-fluoro-phenyl)-piperidine-1-carbonyl]-indol-1-yl}-1-piperazin-1-yl-ethanone hydrochloride], the Ki under setting [1] is 12 nM.

`CN(C)C(=O)Cn1cc(C(=O)N2CCC(c3ccncc3)CC2)c2ccc(Cl)cc21` [Example 122, 2-[6-Chloro-3-(3,4,5,6-tetrahydro-2H-[4,4′]bipyridinyl-1-carbonyl)-indol-1-yl]-N,N-dimethyl-acetamide]: the affinity, expressed as Ki, was 10 nM.

As to `COc1ccccc1N1CCN(C(=O)c2cn(CC(=O)N(C)C)c3cc(Cl)ccc23)CC1` [Example 151, 2-{6-Chloro-3-[4-(2-methoxy-phenyl)-piperazine-1-carbonyl]-indol-1-yl}-N,N-dimethyl-acetamide], the inhibition constant Ki under setting [1] is 14 nM.

For the compound `CCOc1ccccc1N1CCN(C(=O)c2cn(CC(=O)N(C)C)c3cc(Cl)ccc23)CC1` [Example 152, 2-{6-Chloro-3-[4-(2-ethoxy-phenyl)-piperazine-1-carbonyl]-indol-1-yl}-N,N-dimethyl-acetamide], under setting [1], the inhibition constant (Ki) is 14 nM.

`COc1ccccc1N1CCN(C(=O)c2cn(CC(=O)N3CCN(C)CC3)c3cc(Cl)ccc23)CC1` [Example 153, 2-{6-Chloro-3-[4-(2-methoxy-phenyl)-piperazine-1-carbonyl]-indol-1-yl}-1-(4-methyl-piperazin-1-yl)-ethanone] registered a Ki of 23 nM.

Consider `CNC(=O)Cn1cc(C(=O)N2CCN(c3ccccc3OC)CC2)c2ccc(Cl)cc21` [Example 162, 2-{6-Chloro-3-[4-(2-methoxy-phenyl)-piperazine-1-carbonyl]-indol-1-yl}-N-methyl-acetamide], for which the Ki under setting [1] was 27 nM.

`COc1ccccc1N1CCN(C(=O)c2cn(CCN(C)C)c3cc(Cl)ccc23)CC1` [Example 163, [6-Chloro-1-(2-dimethylamino-ethyl)-1H-indol-3-yl]-[4-(2-methoxy-phenyl)-piperazin-1-yl]-methanone]: under setting [1], the Ki was 22 nM.

Take `CN(C)CCn1cc(C(=O)N2CCN(c3ccccc3F)CC2)c2ccc(Cl)cc21` [Example 171, [6-Chloro-1-(2-dimethylamino-ethyl)-1H-indol-3-yl]-[4-(2-fluoro-phenyl)-piperazin-1-yl]-methanone]: the Ki under setting [1] is 7 nM.

As for `CN1CCN(C(=O)Cn2cc(C(=O)N3CCN(c4ccccc4F)CC3)c3ccc(Cl)cc32)CC1` [Example 172, 2-{6-Chloro-3-[4-(2-fluoro-phenyl)-piperazine-1-carbonyl]-indol-1-yl}-1-(4-methyl-piperazin-1-yl)-ethanone], the Ki under setting [1] is 10 nM.

As for `CN(C)C(=O)Cn1cc(C(=O)N2CCN(c3ccccc3F)CC2)c2ccc(Cl)cc21` [Example 174, 2-{6-Chloro-3-[4-(2-fluoro-phenyl)-piperazine-1-carbonyl]-indol-1-yl}-N,N-dimethyl-acetamide], the inhibitory constant (Ki) under setting [1] was found to be 3 nM.

As for `NC(=O)Cn1cc(C(=O)N2CCN(c3ccccc3F)CC2)c2ccc(Cl)cc21` [Example 175, 2-{6-Chloro-3-[4-(2-fluoro-phenyl)-piperazine-1-carbonyl]-indol-1-yl}-acetamide], the Ki under setting [1] is 32 nM.

On to `CNC(=O)Cn1cc(C(=O)N2CCN(c3ccccc3F)CC2)c2ccc(Cl)cc21` [Example 176, 2-{6-Chloro-3-[4-(2-fluoro-phenyl)-piperazine-1-carbonyl]-indol-1-yl}-N-methyl-acetamide], for which the inhibition constant (Ki) is 8 nM.

Consider `O=C(Cn1cc(C(=O)N2CCN(c3ccccc3F)CC2)c2ccc(Cl)cc21)N1CCNCC1` [Example 177, 2-{6-Chloro-3-[4-(2-fluoro-phenyl)-piperazine-1-carbonyl]-indol-1-yl}-1-piperazin-1-yl-ethanone], for which, under setting [1], the inhibition constant Ki stood at 8 nM.

`CNC(=O)Cn1cc(C(=O)N2CCN(c3ccc(F)cc3F)CC2)c2ccc(Cl)cc21` [Example 190, 2-{6-Chloro-3-[4-(2,4-difluoro-phenyl)-piperazine-1-carbonyl]-indol-1-yl}-N-methyl-acetamide]: under setting [1], the Ki amounted to 19 nM.

As to `CNC(=O)Cn1cc(C(=O)N2CCN(c3ncccc3C(F)(F)F)CC2)c2ccc(Cl)cc21` [Example 196, 2-{6-Chloro-3-[4-(3-trifluoromethyl-pyridin-2-yl)-piperazine-1-carbonyl]-indol-1-yl}-N-methyl-acetamide], under setting [1], the Ki is 26 nM.

In the case of `C[C@H](N)Cn1cc(C(=O)N2CCN(c3ccccc3F)CC2)c2ccc(Cl)cc21` [Example 198, [1-((S)-2-Amino-propyl)-6-chloro-1H-indol-3-yl]-[4-(2-fluoro-phenyl)-piperazin-1-yl]-methanone], under setting [1], the inhibition constant Ki came out at 20 nM.

With `O=C(c1cn(C[C@@H]2CCCN2)c2cc(Cl)ccc12)N1CCN(c2ccccc2F)CC1` [Example 200, (6-Chloro-1-(S)-1-pyrrolidin-2-ylmethyl-1H-indol-3-yl)-[4-(2-fluoro-phenyl)-piperazin-1-yl]-methanone], the Ki amounted to 21 nM.
